Experimental findings from patent EP4578855A1, “PROLYL HYDROXYLASE INHIBITOR AND USE THEREOF” (Suzhong Pharmaceutical Group Co., Ltd., priority 2022, dated 2024) are described below.

This test relates to human hepatocarcinoma cell line Hep3B. In words: In-vitro erythropoietin (EPO)-inducing activity experiment (EPO ELISA, OD450). Conditions: Homo sapiens, Hep3B, 24 h, Hep3B cells, incubated 24 hours at 37°C. The class given is cell-based. As for the experimental part: In-vitro erythropoietin (EPO)-inducing activities of the compounds in Embodiments 10 to 12 were evaluated by using a human hepatocarcinoma cell line Hep3B (ATCC). Hep3B cells were cultured in an EMEM medium (Eagle's Minimum Essential Medium) at 37°C in the presence of 10% fetal bovine serum (FBS). Experimental steps were as follows: • (1) Cell preparation: the cells were inoculated in a 96-well plate, and cell plating was carried out according to an amount of 100 µL per well based on 2*10~4 per well. • (2) Preparation of compound concentration gradient: 100 µM, 20 µM, 2-parallel well detection. A solution with 200 times final concentration was prepared in a 96-well plate, the compound was diluted 200/3 times by using a cell culture medium, and then 50 µL of the compound was sucked for drug administration to the cells. 50 µL of DMSO-containing culture solution was added into a negative control well to make a final concentration contain 5 ‰ DMSO, and 50 µL of positive compound with the highest concentration was added into a positive control well to incubate the cells at 37°C for 24 hours. • (3) The reaction plate was washed twice with 1X Wash Buffer according to about 400 µL per well. • (4) 100 µL of diluted standard (comprising a standard blank control) was added into an appropriate well. • (5) 50 µL of sample and 50 µL of Sample Diluent were added into a sample well. • (6) 50 µL of 1X Biotin Conjugated Antibody were added into all wells to incubate the cells at room temperature for 1 hour. • (7) The reaction plate was washed with 1X Wash Buffer for 6 times according to about 400 µL per well. • (8) 100 µL of 1X Streptavidin-HRP was added in to each well to incubate the cells at room temperature for 15 minutes. • (9) The reaction plate was washed with 1X Wash Buffer for 6 times according to about 400 µL per well. • (10) 100 µL of TMB Substrate Solution was added into each well to incubate the cells at room temperature for 10 minutes. • (11) 100 µL of Stop Solution was added into each well. • (12) OD450 was read by EnSight.
The EPO-inducing activities of the compounds were expressed as the concentration for 50% of maximal effect (EC50).

The structures appear in SMILES notation. pEC50: −log10 of the molar value.

`O=C(O)CNC(=O)c1c(O)cc(C2CCc3ccccc3C2)n2ncnc12` (single isomer, unassigned) [Compound in Embodiment 13, [(7-hydroxy-5-(1,2,3,4-tetrahydronaphthalene-2-yl)-[1,2,4]triazolo[1,5-a]pyridine-8-carbonyl)amino]acetic acid] had a pEC50 of 5.30.
